# Results: patent US20260217701A1, “SELECTIVE BET INHIBITORS AND USES THEREOF” (Tay Therapeutics Limited, priority 2022, published 2026)
# Legend:
# [1] = tested on: idiopathic pulmonary fibrosis (bleomycin); assay: Bleomycin IPF model: lung histology, Masson's Trichrome with Ashcroft scoring; assay type: in vivo, C57BI/6J mice; conditions: for Ashcroft scores relative to IPF control group: Day 21
# Description: Animals were acclimated for two weeks prior to study initiation, and were randomized into the experimental groups outlined in Table 32. Intratracheal (IT) administration of Bleo or PBS control was conducted at the start of the study (Day 0). […] Following administration of Bleo, animals (n=10/group) were included in the study if they met the following guidelines on Day 7: […] A resection of the right lung was weighed and homogenized to determine total hydroxyproline levels by colorimetric assay, and the remaining lung lysate was saved for future analyses. For the morphological assessments, the left lung was inflation-fixed at 25 cm of water pressure with 4% paraformaldehyde in PBS for 1 minute, processed, and then sectioned. Morphological analysis of the lung was conducted using H&E-stained slides. Additional histologic stains for morphological analyses included Masson's Trichrome staining with Ashcroft scoring to determine severity of fibrosis.
# [2] = tested on: BET BD2; assay: Comparison with other BET inhibitors in development (EC50, selectivity, oral bioavailability; public information)
# [3] = Pharmacokinetics of Compound A in the CIA study (groups 8 and 9); assay type: in vivo; conditions: Lewis rats
# Description: (§1) Blood samples were collected from animals in group 8 on Day 0, and blood samples were collected from group 9 on Day 20. Blood samples from group 8 and group 9 were collected at 0.25, 0.5, 1, 2, 4, 8, 10, 12, 13, and 24-hours following morning administration of their first dose of the compound. The second dose of the compound was administered after the 8-hour collection timepoint. All blood samples were collected at the eye socket and put into tubes containing EDTA-K2 as an anticoagulant and centrifuged at 4° C. at 4,000 g for 5 minutes. Plasma was transferred to a separate tube and stored at −75+15° C. for PK analysis. Pharmacokinetic analyses for Compound A in Lewis rats were performed as described in Experimental Method B.
# as §1, with “−75±15°” for “−75+15°”, “Pharmacokinetic analyses for Compound A in Lewis rats were performed as described in Experimental Method B.” left out
# [4] = Bleomycin IPF model: body weight and mortality; assay type: in vivo, C57BI/6J mice; parameters: Mean Body Weight Change: unit not given here
# Description: Male C57BI/6J mice, aged 12 weeks with an approximate weight of 25-30 g were obtained from Jackson Laboratories (Bar Harbor, ME). Animals were acclimated for two weeks prior to study initiation, and were randomized into the experimental groups outlined in Table 32.
# Intratracheal (IT) administration of Bleo or PBS control was conducted at the start of the study (Day 0). […] Animals were weighed on Day 0, and indexed boluses of PBS control (Group 1) or Bleo (Groups 2-6) were delivered by IT administration.
# Following administration of Bleo, animals (n=10/group) were included in the study if they met the following guidelines on Day 7: (1) a predictable 5% loss in body weight, and (2) the presence of fibrotic pulmonary lesions, detected by micro-CT imaging. 10 animals from Group 1 additionally proceeded as controls. Animals that continued in the study on Day 7 received an oral gavage (OG) administration of PBS, Compound A (1 mg/kg, 3 mg/kg, 10 mg/kg), or Pirfenidone (300 mg/kg), as outlined in Table 31 in 25 μL boluses every other day (QOD), starting on Day 7. Compound A was formulated in 5% (v/v) DMSO/15% (v/v) PEG 400/80% (v/v) E-TPGS in purified water. […]
# [5] = Bleo + Compound A (1 mg/kg) OG QOD from D7
# [6] = Bleo + Compound A (3 mg/kg) OG QOD from D7
# [7] = Bleo + Compound A (10 mg/kg) OG QOD from D7
compound,measurement,setting,value
"Cn1cc(-c2ccccc2)c(-c2cn(C)c(=O)c3[nH]c(-c4cnn(C(F)(F)F)c4)cc23)cc1=O [Compound A, 6-methyl-4-(1-methyl-2-oxo-5-phenyl-1,2-dihydropyridin-4-yl)-2-(1-(trifluoromethyl)-1H-pyrazol-4-yl)-1,6-dihydro-7H-pyrrolo[2,3-c]pyridin-7-one]","Ashcroft Scoring, Max",[1]; [5],7
same,"Ashcroft Scoring, Mean",[1]; [5],5.25
same,"Ashcroft Scoring, Min",[1]; [5],4
same,"Ashcroft Scoring, Max",[1]; [6],5
same,"Ashcroft Scoring, Mean",[1]; [6],4.416
same,"Ashcroft Scoring, Min",[1]; [6],3
same,"Ashcroft Scoring, Max",[1]; [7],5
same,"Ashcroft Scoring, Mean",[1]; [7],3.708
same,"Ashcroft Scoring, Min",[1]; [7],2
same,Ashcroft scores relative to IPF control group,"[1]; 1, 3, 10 mg/kg",decreased Ashcroft scores
same,Ashcroft scores relative to IPF control group,"[1]; Group 5, 10 mg/kg",significantly reduced Ashcroft scores
same,Fibrosis in lung tissue (Masson's Trichrome) compared to Group 2 (Bleo+Saline),[1]; Group 5 (Compound A 10) and Group 6 (Pirfenidone),qualitatively diminished
same,selectivity relative to other BET inhibitors,[2]; same comparators,higher selectivity
same,EC50 relative to other BET inhibitors,"[2]; vs NUV-868, ABBV-744, GSK620, Pelabresib, ABBV-075, MK-8628/OTX-015, BI-894999",lower EC50
same,period of increasing plasma concentration after oral administration,[3],approximately the first four hours
same,Mean Body Weight Change,"[4]; Bleo + Compound A (1 mg/kg) OG QOD from D7, Day 1",1.269
same,Mean Body Weight Change,"[4]; Bleo + Compound A (1 mg/kg) OG QOD from D7, Day 2",−0.061
same,Mean Body Weight Change,"[4]; Bleo + Compound A (1 mg/kg) OG QOD from D7, Day 3",−0.538
same,Mean Body Weight Change,"[4]; Bleo + Compound A (1 mg/kg) OG QOD from D7, Day 4",−4.382
same,Mean Body Weight Change,"[4]; Bleo + Compound A (1 mg/kg) OG QOD from D7, Day 5",−8.986
same,Mean Body Weight Change,"[4]; Bleo + Compound A (1 mg/kg) OG QOD from D7, Day 6",−11.204
same,Mean Body Weight Change,"[4]; Bleo + Compound A (1 mg/kg) OG QOD from D7, Day 7",−14.465
same,Mean Body Weight Change,"[4]; Bleo + Compound A (1 mg/kg) OG QOD from D7, Day 8",−18.012
same,Mean Body Weight Change,"[4]; Bleo + Compound A (1 mg/kg) OG QOD from D7, Day 9",−17.310
same,Mean Body Weight Change,"[4]; Bleo + Compound A (1 mg/kg) OG QOD from D7, Day 10",−17.947
same,Mean Body Weight Change,"[4]; Bleo + Compound A (1 mg/kg) OG QOD from D7, Day 11",−16.922
same,Mean Body Weight Change,"[4]; Bleo + Compound A (1 mg/kg) OG QOD from D7, Day 12",−17.204
same,Mean Body Weight Change,"[4]; Bleo + Compound A (1 mg/kg) OG QOD from D7, Day 13",−16.710
same,Mean Body Weight Change,"[4]; Bleo + Compound A (1 mg/kg) OG QOD from D7, Day 14",−16.996
same,Mean Body Weight Change,"[4]; Bleo + Compound A (1 mg/kg) OG QOD from D7, Day 15",−16.840
same,Mean Body Weight Change,"[4]; Bleo + Compound A (1 mg/kg) OG QOD from D7, Day 16",16.698
same,Mean Body Weight Change,"[4]; Bleo + Compound A (1 mg/kg) OG QOD from D7, Day 17",−16.509
same,Mean Body Weight Change,"[4]; Bleo + Compound A (1 mg/kg) OG QOD from D7, Day 18",−16.113
same,Mean Body Weight Change,"[4]; Bleo + Compound A (1 mg/kg) OG QOD from D7, Day 19",−16.612
same,Mean Body Weight Change,"[4]; Bleo + Compound A (1 mg/kg) OG QOD from D7, Day 20",−16.506
same,Mean Body Weight Change,"[4]; Bleo + Compound A (1 mg/kg) OG QOD from D7, Day 21",−16.978
same,Mean Body Weight Change,"[4]; Bleo + Compound A (3 mg/kg) OG QOD from D7, Day 1",0.712
same,Mean Body Weight Change,"[4]; Bleo + Compound A (3 mg/kg) OG QOD from D7, Day 2",−0.088
same,Mean Body Weight Change,"[4]; Bleo + Compound A (3 mg/kg) OG QOD from D7, Day 3",−1.018
same,Mean Body Weight Change,"[4]; Bleo + Compound A (3 mg/kg) OG QOD from D7, Day 4",−5.198
same,Mean Body Weight Change,"[4]; Bleo + Compound A (3 mg/kg) OG QOD from D7, Day 5",−8.915
same,Mean Body Weight Change,"[4]; Bleo + Compound A (3 mg/kg) OG QOD from D7, Day 6",−11.426
same,Mean Body Weight Change,"[4]; Bleo + Compound A (3 mg/kg) OG QOD from D7, Day 7",−14.024
same,Mean Body Weight Change,"[4]; Bleo + Compound A (3 mg/kg) OG QOD from D7, Day 8",−18.310
same,Mean Body Weight Change,"[4]; Bleo + Compound A (3 mg/kg) OG QOD from D7, Day 9",18.416
same,Mean Body Weight Change,"[4]; Bleo + Compound A (3 mg/kg) OG QOD from D7, Day 10",−19.029
same,Mean Body Weight Change,"[4]; Bleo + Compound A (3 mg/kg) OG QOD from D7, Day 11",−17.826
same,Mean Body Weight Change,"[4]; Bleo + Compound A (3 mg/kg) OG QOD from D7, Day 12",−18.384
same,Mean Body Weight Change,"[4]; Bleo + Compound A (3 mg/kg) OG QOD from D7, Day 13",−18.055
same,Mean Body Weight Change,"[4]; Bleo + Compound A (3 mg/kg) OG QOD from D7, Day 14",−18.840
same,Mean Body Weight Change,"[4]; Bleo + Compound A (3 mg/kg) OG QOD from D7, Day 15",−19.765
same,Mean Body Weight Change,"[4]; Bleo + Compound A (3 mg/kg) OG QOD from D7, Day 16",−19.797
same,Mean Body Weight Change,"[4]; Bleo + Compound A (3 mg/kg) OG QOD from D7, Day 17",−20.566
same,Mean Body Weight Change,"[4]; Bleo + Compound A (3 mg/kg) OG QOD from D7, Day 18",−21.350
same,Mean Body Weight Change,"[4]; Bleo + Compound A (3 mg/kg) OG QOD from D7, Day 19",−20.021
same,Mean Body Weight Change,"[4]; Bleo + Compound A (3 mg/kg) OG QOD from D7, Day 20",−22.069
same,Mean Body Weight Change,"[4]; Bleo + Compound A (3 mg/kg) OG QOD from D7, Day 21",−22.585
same,Mean Body Weight Change,"[4]; Bleo + Compound A (10 mg/kg) OG QOD from D7, Day 1",1.987
same,Mean Body Weight Change,"[4]; Bleo + Compound A (10 mg/kg) OG QOD from D7, Day 2",2.172
same,Mean Body Weight Change,"[4]; Bleo + Compound A (10 mg/kg) OG QOD from D7, Day 3",0.974
same,Mean Body Weight Change,"[4]; Bleo + Compound A (10 mg/kg) OG QOD from D7, Day 4",4.101
same,Mean Body Weight Change,"[4]; Bleo + Compound A (10 mg/kg) OG QOD from D7, Day 5",−8.131
same,Mean Body Weight Change,"[4]; Bleo + Compound A (10 mg/kg) OG QOD from D7, Day 6",−9.560
same,Mean Body Weight Change,"[4]; Bleo + Compound A (10 mg/kg) OG QOD from D7, Day 7",−11.173
same,Mean Body Weight Change,"[4]; Bleo + Compound A (10 mg/kg) OG QOD from D7, Day 8",−14.286
same,Mean Body Weight Change,"[4]; Bleo + Compound A (10 mg/kg) OG QOD from D7, Day 9",−15.876
same,Mean Body Weight Change,"[4]; Bleo + Compound A (10 mg/kg) OG QOD from D7, Day 10",−16.428
same,Mean Body Weight Change,"[4]; Bleo + Compound A (10 mg/kg) OG QOD from D7, Day 11",−14.809
same,Mean Body Weight Change,"[4]; Bleo + Compound A (10 mg/kg) OG QOD from D7, Day 12",−13.953
same,Mean Body Weight Change,"[4]; Bleo + Compound A (10 mg/kg) OG QOD from D7, Day 13",−15.394
same,Mean Body Weight Change,"[4]; Bleo + Compound A (10 mg/kg) OG QOD from D7, Day 14",−13.610
same,Mean Body Weight Change,"[4]; Bleo + Compound A (10 mg/kg) OG QOD from D7, Day 15",−15.280
same,Mean Body Weight Change,"[4]; Bleo + Compound A (10 mg/kg) OG QOD from D7, Day 16",−13.218
same,Mean Body Weight Change,"[4]; Bleo + Compound A (10 mg/kg) OG QOD from D7, Day 17",−13.174
same,Mean Body Weight Change,"[4]; Bleo + Compound A (10 mg/kg) OG QOD from D7, Day 18",−14.218
same,Mean Body Weight Change,"[4]; Bleo + Compound A (10 mg/kg) OG QOD from D7, Day 19",−15.010
same,Mean Body Weight Change,"[4]; Bleo + Compound A (10 mg/kg) OG QOD from D7, Day 20",−16.208
same,Mean Body Weight Change,"[4]; Bleo + Compound A (10 mg/kg) OG QOD from D7, Day 21",−16.139
same,Ending body weight at Day 21,"[4]; Bleo mice, 10 mg/kg",higher ending weight at Day 21
same,Body weight course after start of administration,"[4]; Bleo mice, all doses tested (1, 3, 10 mg/kg)",weight loss was arrested
same,Body weight compared with Bleo+Saline treated animals,"[4]; Compound A (all doses tested), Pirfenidone (300 mg/kg)",No significant difference
same,Deaths / mortality,"[4]; OG administration, IPF study",no deaths or significant changes in mortality
